Values of other authors as cited in PubChem BioAssay AID1259409 (Chemical Carcinogenesis Research Information System (CCRIS), 2018).

System: rodent chemically induced tumor inhibition, incidence and multiplicity
Assay: CCRIS tumor inhibitor studies

CC1=C(/C=C/C(C)=C/C=C/C(C)=C/C(=O)O)C(C)(C)CCC1
tumour outcome (control, treated, inhibition, significance) (Carcinogen: 7,12-DIMETHYLBENZ[A]ANTHRACENE, 57-97-6, Dose [Inhibitor]: 68 NMOL IN 0.2 ML ACETONE ONCE 1 HR BEFORE APPLICATION OF CARCINOGEN (STUDY DURATION: 21 WK), Route [Inhibitor]: DERMAL, Species: MOUSE, Strain/Sex: CD-1/FEMALE, Target Tissue: Type of Lesion: SKIN: PAPILLOMA, Dose [Carcinogen]: 0.2 UMOL IN 0.2 ML ACETONE ONCE, Promoter: 12-O-TETRADECANOYLPHORBOL-13-ACETATE, 16561-29-8): 95%, 92%, 3%, not significant | tumour outcome (control, treated, inhibition, significance) (Carcinogen: 7,12-DIMETHYLBENZ[A]ANTHRACENE, 57-97-6, Dose [Inhibitor]: 170 NMOL IN 0.2 ML ACETONE 1 HR PRIOR TO EACH PROMOTER DOSE FOR 12 WK (STUDY DURATION: 14 WK), Route [Inhibitor]: DERMAL, Species: MOUSE, Strain/Sex: SENCAR/FEMALE, Target Tissue: Type of Lesion: SKIN: PAPILLOMA, Dose [Carcinogen]: 200 NMOL IN 0.2 ML ACETONE ONCE, Promoter: 12-O-TETRADECANOYLPHORBOL-13-ACETATE, 16561-29-8): 100%, 87%, 13%, not calculated | tumour outcome (control, treated, inhibition, significance) (Carcinogen: 7,12-DIMETHYLBENZ[A]ANTHRACENE, 57-97-6, Dose [Inhibitor]: 170 NMOL IN 0.2 ML ACETONE 1 HR PRIOR TO EACH PROMOTER DOSE FOR 20 WK (STUDY DURATION: 22 WK), Route [Inhibitor]: DERMAL, Species: MOUSE, Strain/Sex: CD-1/FEMALE, Target Tissue: Type of Lesion: SKIN: PAPILLOMA, Dose [Carcinogen]: 200 NMOL IN 0.2 ML ACETONE ONCE, Promoter: 12-O-TETRADECANOYLPHORBOL-13-ACETATE, 16561-29-8): 94%, 63%, 33%, not calculated | tumour outcome (control, treated, inhibition, significance) (Carcinogen: DIETHYLNITROSAMINE, 55-18-5, Dose [Inhibitor]: 0, 10000 IU/KG IN CORN OIL FOR DURATION OF STUDY BEGINNING 7 D PRIOR TO FIRST CARCINOGEN DOSE (STUDY DURATION: 6 MO), Route [Inhibitor]: GAVAGE, Species: RAT, Strain/Sex: BD6/FEMALE, Target Tissue: Type of Lesion: ESOPHAGUS: TUMOR, Dose [Carcinogen]: 80 MG/KG BW 1/WK FOR 8 WK, Promoter: NONE USED): 20%, 13%, 35%, not significant | tumour outcome (control, treated, inhibition, significance) (Carcinogen: DIETHYLNITROSAMINE, 55-18-5, Dose [Inhibitor]: 0, 10000 IU/KG IN CORN OIL FOR DURATION OF STUDY BEGINNING 7 D PRIOR TO FIRST CARCINOGEN DOSE (STUDY DURATION: 6 MO), Route [Inhibitor]: GAVAGE, Species: RAT, Strain/Sex: BD6/FEMALE, Target Tissue: Type of Lesion: LIVER: TUMOR, Dose [Carcinogen]: 80 MG/KG BW 1/WK FOR 8 WK, Promoter: NONE USED): 83%, 91%, -10%, not significant | tumour outcome (control, treated, inhibition, significance) (Carcinogen: DIETHYLNITROSAMINE, 55-18-5, Dose [Inhibitor]: 0, 20000 IU/KG IN CORN OIL FOR DURATION OF STUDY BEGINNING 7 D PRIOR TO FIRST CARCINOGEN DOSE (STUDY DURATION: 6 MO), Route [Inhibitor]: GAVAGE, Species: RAT, Strain/Sex: BD6/FEMALE, Target Tissue: Type of Lesion: ESOPHAGUS: TUMOR, Dose [Carcinogen]: 80 MG/KG BW 1/WK FOR 8 WK, Promoter: NONE USED): 30%, 13%, 57%, not significant | tumour outcome (control, treated, inhibition, significance) (Carcinogen: DIETHYLNITROSAMINE, 55-18-5, Dose [Inhibitor]: 0, 20000 IU/KG IN CORN OIL FOR DURATION OF STUDY BEGINNING 7 D PRIOR TO FIRST CARCINOGEN DOSE (STUDY DURATION: 6 MO), Route [Inhibitor]: GAVAGE, Species: RAT, Strain/Sex: BD6/FEMALE, Target Tissue: Type of Lesion: LIVER: TUMOR, Dose [Carcinogen]: 80 MG/KG BW 1/WK FOR 8 WK, Promoter: NONE USED): 85%, 93%, -9%, not significant | tumour outcome (control, treated, inhibition, significance) (Carcinogen: N-METHYL-N'-NITRO-N-NITROSOGUANIDINE, 70-25-7, Dose [Inhibitor]: 0, 0.75 MG/KG BW 1/2 D FOR 26 WK BEGINNING POST CARCINOGEN TREATMENT (STUDY DURATION: 52 WK), Route [Inhibitor]: SUBCUTANEOUS, Species: RAT, Strain/Sex: WISTAR/MALE, Target Tissue: Type of Lesion: STOMACH: ADENOCARCINOMA, Dose [Carcinogen]: 25 UG/ML IN DRINKING WATER FOR 25 WK, Promoter: SODIUM CHLORIDE, 7647-14-5): 17/20 (85%), 8/20 (40%), 53% p<0.01 | tumour outcome (control, treated, inhibition, significance) (Carcinogen: N-METHYL-N'-NITRO-N-NITROSOGUANIDINE, 70-25-7, Dose [Inhibitor]: 0, 1.5 MG/KG BW 1/2 D FOR 26 WK BEGINNING POST CARCINOGEN TREATMENT (STUDY DURATION: 52 WK), Route [Inhibitor]: SUBCUTANEOUS, Species: RAT, Strain/Sex: WISTAR/MALE, Target Tissue: Type of Lesion: STOMACH: ADENOCARCINOMA, Dose [Carcinogen]: 25 UG/ML IN DRINKING WATER FOR 25 WK, Promoter: SODIUM CHLORIDE, 7647-14-5): 17/20 (85%), 7/20 (35%), 59%, p<0.01 | tumour outcome (control, treated, inhibition, significance) (Carcinogen: N-NITROSO-N-METHYLUREA, 684-93-5, Dose [Inhibitor]: 0, 60 MG/KG OF DIET FOR 3 MO BEGINNING 1 WK POST CARCINOGEN DOSE (STUDY DURATION: 100 D), Route [Inhibitor]: ORAL, Species: RAT, Strain/Sex: SPRAGUE-DAWLEY/FEMALE, Target Tissue: Type of Lesion: MAMMARY GLAND: TUMOR, Dose [Carcinogen]: 50 MG/KG BW ONCE, Promoter: NONE USED): 100%, 92%, 8%, not significant | tumour outcome (control, treated, inhibition, significance) (Carcinogen: N-NITROSO-N-METHYLUREA, 684-93-5, Dose [Inhibitor]: 0, 120 MG/KG OF DIET FOR 13 MO BEGINNING 1 WK POST CARCINOGEN DOSE (STUDY DURATION: 100 D), Route [Inhibitor]: ORAL, Species: RAT, Strain/Sex: SPRAGUE-DAWLEY/FEMALE, Target Tissue: Type of Lesion: MAMMARY GLAND: TUMOR, Dose [Carcinogen]: 50 MG/KG BW ONCE, Promoter: NONE USED): 100%, 83%, 17%, not significant
